Results: patent US11311524B2, “Pharmaceutical composition used for treatment of HTLV-1-associated myelopathy” (DAIICHI SANKYO COMPANY, LIMITED, priority 2017, dated 2022)
Where two headings read alike, the source gives them in different places.

Columns and labels:
Type in all cases: cell-based, human
HCT-4 cells = test: Apoptosis of HCT-4 cells (Annexin V-PE / 7-AAD, FACS); conditions: HCT-4, 1 μM, 21 days
Description: In this Example, experiments were carried out using the cells cultured for 21 days in Example 5. To detect apoptotic cells in the cells cultured for 21 days by adding 1 μM of compound A or compound B, the cells were stained by use of PE Annexin V apoptosis Detection Kit I (BD) and analyzed by FACS. In this analysis, the viable cells were detected based on FSC (forward scatter)-SSC (side scatter) plots. The viable cells were analyzed by Annexin V-PE (annexin V) and 7-AAD (7-amino actinomycin D). Early apoptotic cells were detected as Annexin V (+) 7-AAD (−) cells. The results were as shown in FIG. 8 (HCT-4 cells) and FIG. 9 (HCT-5 cells).

[1] = test system: HTLV-1 infected cells in HAM patient's PBMC; test: HTLV-1 pro-viral load (infected cell rate) in HAM patient-derived PBMC by real time PCR; conditions: 12 days culture; for Reduction in HTLV-1 pro-viral load: 1000 nM, average of all HAM patients; for Cases in which HTLV-1 pro-viral load in HAM patient's PBMC decreases: PBMC of 8 HAM patients
Description: PBMC taken from 8 HAM patients were suspended in a culture medium (RPMI1640 culture medium containing 10% FBS) and seeded in a 48-well plate in a ratio of 5×10^5 cells per well, and compound A or compound B was added so as to provide a final concentration of 1, 10, 100 or 1000 nM. The culture solution of 0.5 mL in total was cultured at 37° C. in 5% CO2 conditions for 12 days. A group treated with DMSO and a group treated with PSL (1 μg/mL) were used as controls. Day 12 after initiation of culture, the culture solution was centrifuged, and thereafter, the cell suspension was recovered from each of the cultures carried out under different conditions and centrifuged. After the supernatant was removed, the cell pellet was subjected to genomic DNA extraction. The genome DNA extracted was subjected to real time PCR to measure HTLV-1 pro-viral load (infected cell rate) (Yamano et al., Blood. 2002, 99 (1): 88-94). Based on the HTLV-1 pro-viral load in cells, which were obtained by adding DMSO to each of the HAM patient's PBMC and culturing the PBMC, as 100%, the relative value of HTLV-1 pro-viral load in a group treated with compound A, compound B or PSL was calculated, and then, an average value of 8 HAM patient cases was obtained. The significance test was carried out by using the Friedman test of GraphPad Prism6 (MDF).

HAM patient-derived PBMC = test: Autoproliferation (3H-thymidine incorporation) of HAM patient-derived PBMC without stimulation; conditions: for GI50: Homo sapiens, 6 days culture, 3H-thymidine; for Suppression of autoproliferation activity of HAM patient-derived PBMC: no stimulation, relative to DMSO group
Description: PBMC taken from 8 HAM patients were suspended in culture mediums (RPMI1640 culture medium (wako) containing 10% FBS (GIBCO)), seeded in a 96-well round-bottom plate in a ratio of 1×10^5 cells per well (3 wells were used for each concentration), and compound A or compound B was added so as to provide a final concentration of 1, 10, 100 or 1000 nM. Culture was carried out at 37° C. in 5% CO2 conditions for 6 days. The DMSO treatment group and the PSL (1 μg/mL) treatment group were used as controls. Day 6 after initiation of culture, 1 μCi ^3H-thymidine was added to each well and culture was carried out at 37° C., in 5% CO2 conditions for 16 hours. Thereafter, the cultured cells were allowed to adsorb to a glass filter (Printed Filtermat A, PerkinElmer) by a cell harvester (Tomtec MH3, PerkinElmer), dried and impregnated with solid scintillator Meltilex-A (PerkinElmer). The amount of the ^3H-thymidine incorporated in the cells was measured by use of MicroBeta (WALLAC MicroBeta TriLux 1450-021) (Yamano et al., PLoS One. 2009, 4(8): e6517). Based on the average count of ^3H-thymidine in the DMSO treatment group of HAM patients' PBMC as 100%, the relative values of the groups treated with compound A, compound B and PSL (1 μg/mL) were obtained by calculation, and then, an average value of 8 HAM patient cases was obtained. A significance test was carried out in accordance with the Friedman test of GraphPad Prism6 (MDF).
The number of patients was increased to 16 and the same experiment as above was carried out.
Effect on HAM patient-derived PBMC was checked in the same manner as in the above Example except that an EZH2 inhibitor was used in place of compounds A and B.
As the EZH2 inhibitor, GSK126 (CAS No.: 1346574-57-9) and E7438 (CAS No.: 1403254-99-8) were used. The concentration for treatment was 1, 10, 100, 1000 or 10000 nM in terms of final concentration. In the experiment, PBMC samples taken from the 8 persons before the number of cases increased in the above were used.

[2] = PBMC of 8 HAM patients, read-out: GI50, autoproliferation activity of HAM patient-derived PBMC
[3] = PBMC of 16 HAM patients, read-out: GI50, spontaneous proliferation activity of HAM patient-derived PBMC

Row | Compound | Number of early apoptotic cells (Annexin V (+) 7-AAD (−)) (HCT-4 cells) | Number of viable cells (FSC-SSC) (HCT-4 cells) | Reduction in HTLV-1 pro-viral load [1] | Cases in which HTLV-1 pro-viral load in HAM patient's PBMC decreases [1] | GI50 (HAM patient-derived PBMC; [2]) | GI50 (HAM patient-derived PBMC; [3]) | Suppression of autoproliferation activity of HAM patient-derived PBMC (HAM patient-derived PBMC)
1 | Cc1cc(C)c(CNC(=O)c2cc(Br)c3c(c2C)O[C@@](C)([C@H]2CC[C@H](N(C)C)CC2)O3)c(=O)[nH]1 [compound A, (2R)-7-bromo-2-[trans-4-(dimethylamino)cyclohexyl]-N-[(4,6-dimethyl-2-oxo-1,2-dihydropyridin-3-yl)methyl]-2,4-dimethyl-1,3-benzodioxole-5-carboxamide] | the number of early apoptotic cells increased | the number of viable cells decreases | significant reduction in pro-viral load | 5 out of 8 | 73 nM | 45.6 nM | suppressed autoproliferation activity of PBMC in all the eight HAM patient cases, in a concentration-dependent manner
2 | Cc1cc(C)c(CNC(=O)c2cc(Cl)c3c(c2C)O[C@@](C)([C@H]2CC[C@H](N(C)C)CC2)O3)c(=O)[nH]1 [compound B, (2R)-7-chloro-2-[trans-4-(dimethylamino)cyclohexyl]-N-[(4,6-dimethyl-2-oxo-1,2-dihydropyridin-3-yl)methyl]-2,4-dimethyl-1,3-benzodioxole-5-carboxamide] | the number of early apoptotic cells increased | the number of viable cells decreases | significant reduction in pro-viral load | 5 out of 8 | 33.9 nM | 25.9 nM | suppressed autoproliferation activity of PBMC in all the eight HAM patient cases, in a concentration-dependent manner
